# Results: patent US20260085062A1, “NOVEL COMPOUNDS AS CK2 INHIBITORS” (Cambridge Enterprise Limited, priority 2022, published 2026)
# Legend:
# CLK2 = target: T1, CLK2 (Homo sapiens, UniProt P49760); assay: Biochemical assay for inhibitors of CLK2 kinase activity (ADP-Glo); conditions: 20 nM CLK2, 50 μM peptide substrate, 100 μM ATP, read-out: Assay 2: CLK2 Enzyme IC50
# T1 construct: purchased Carna Biosciences 04-127
# Method: The inhibitory activity of putative kinase inhibitors and the potency of selected compounds were determined using ADP-GloTM assay. The kinase reaction was performed in the presence of excess peptide substrate and ATP at a concentration equivalent to Km. Upon termination of the kinase reaction, remaining ATP was depleted leaving only ADP reaction product, which was converted back to ATP with a coupled luciferin/luciferase reaction. The luminescent output from the coupled reaction was quantified and correlated with the kinase activity. […] The assay was conducted as follows: • 1. […] After 120 minutes, the reaction was stopped by addition of 5 pl ADP-Glo reagent (Promega V9102) and the plate incubated at RT for a further 60 minutes. • 5. 10 μL of Kinase Detection reagent (Promega V9102) was added to assay plate and incubated for a further 30 minutes prior to reading luminescence on an Envision (Perkin-Elmer). Data was analysed to calculate compound IC50and Ki as follows: • 1. […] Morrison Ki was determined using Morrison Ki equation (XL-fit).
# intracellular CK2α = target: T2, intracellular CK2α (Homo sapiens, UniProt P19784); assay: Cell-based NanoBRET assay for inhibitor binding to intracellular CK2α; conditions: HCT116 cells transiently transfected with CSNK2A2-NanoLuc fusion vector; Tracer K-5; 2 h; read-out: Assay 3: NanoBRET ™ assay for binding to intracellular CK2α
# T2 construct: host or cells: HCT116 (ATCC CCL-247)
# T2 sequence (P19784 whole entry, the tested form may be a part): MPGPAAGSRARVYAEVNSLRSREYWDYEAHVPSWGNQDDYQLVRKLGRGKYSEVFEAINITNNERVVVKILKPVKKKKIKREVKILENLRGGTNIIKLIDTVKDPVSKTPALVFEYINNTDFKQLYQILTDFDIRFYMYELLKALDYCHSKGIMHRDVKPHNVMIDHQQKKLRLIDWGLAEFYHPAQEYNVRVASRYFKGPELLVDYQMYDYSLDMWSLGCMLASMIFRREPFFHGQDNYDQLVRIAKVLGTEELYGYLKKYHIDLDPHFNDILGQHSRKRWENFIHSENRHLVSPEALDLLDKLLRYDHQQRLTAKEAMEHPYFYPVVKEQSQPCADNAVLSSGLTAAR
# Method: This assay used the NanoBRET™ System (Promega), an energy transfer technique designed to measure molecular proximity in living cells. The assay measured the apparent affinity of test compounds by competitive displacement of a NanoBRET™ tracer reversibly bound to a NanoLucR luciferase CK2α fusion protein in cells. A fixed concentration of tracer was added to cells expressing the desired NanoLucR-CK2α fusion protein to generate a BRET reporter complex. […] Donor emission wavelength (450 nm) and acceptor emission wavelength (610 nm or 630 nm) were measured on the Envision (Perkin-Elmer) and BRET ratio calculated for data analysis: BRET Ratio=(Acceptorsample/Donorsample)×1,000. • 7.
# CK2α = target: T3, CK2α (Homo sapiens, UniProt P68400); assay: Biochemical assay for inhibitors of CK2α kinase activity (ADP-Glo); conditions: 0.2 nM CK2α, 50 μM peptide substrate, 15 μM ATP, read-out: Assay 1: CK2α Enzyme IC50
# T3 construct: CK2α (residues 2-329) was produced in Escherichia coli BL21 (DE3) for kinase activity screening; His6 (N, cleaved yes); made in house; host or cells: Escherichia coli BL21 (DE3)
# T3 sequence (P68400 2-329): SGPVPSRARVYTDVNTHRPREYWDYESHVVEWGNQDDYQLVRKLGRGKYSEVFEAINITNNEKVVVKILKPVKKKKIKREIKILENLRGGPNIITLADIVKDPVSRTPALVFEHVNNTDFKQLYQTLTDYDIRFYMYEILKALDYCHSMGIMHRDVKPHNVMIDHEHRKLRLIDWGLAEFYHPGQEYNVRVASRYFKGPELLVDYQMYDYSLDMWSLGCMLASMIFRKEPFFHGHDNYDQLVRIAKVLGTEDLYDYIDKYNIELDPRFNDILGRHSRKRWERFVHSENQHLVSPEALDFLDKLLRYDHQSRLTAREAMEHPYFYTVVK
# Method: The inhibitory activity of putative kinase inhibitors and the potency of selected compounds were determined using ADP-Glo™ assay. The kinase reaction was performed in the presence of excess peptide substrate and ATP at a concentration equivalent to Km. Upon termination of the kinase reaction, remaining ATP was depleted leaving only ADP reaction product, which was converted back to ATP with a coupled luciferin/luciferase reaction. The luminescent output from the coupled reaction was quantified and correlated with the kinase activity. […] Single colonies of the cells were grown in 6×1 L of 2×TY with 100 μg/mL ampicillin at 37° C. […] The cells were incubated overnight at 25° C. then harvested by centrifugation at 4,000 g for 20 minutes. The cell pellets were suspended in 20 mM Tris, 500 mM NaCl, pH 8.0 and lysed using a high pressure homogenizer. Protease inhibitor cocktail tablets (one tablet per 50 mL extract; Roche Diagnostics) and DNase I were then added. The crude cell extract was then centrifuged at 10,000 g for 45 minutes, the supernatant was filtered with a 0.22 μm filter. The soluble supernatant was applied on a Ni Sepharose Fast Flow6 column at pH 8.0, washed and eluted in 20 mM Tris pH 8.0, 500 mM NaCl, 200 mM imidazole. […] The cleaved protein was further purified on a Sepharose Q HP anion-exchange column and the main peak fraction from this column was further purified by gel filtration on a Superdex 75 16/60 HiPrep column equilibrated with Tris 20 mM, pH 8.0, 500 mM NaCl. Pure protein was concentrated to 15 mg/mL and flash frozen in liquid nitrogen. […] The assay was conducted as follows: • 1. […] After 120 minutes, the reaction was stopped by addition of 5 pl ADP-Glo reagent (Promega V9102) and the plate incubated at RT for a further 60 minutes. • 5. 10 μL of Kinase Detection reagent (Promega V9102) was added to assay plate and incubated for a further 30 minutes prior to reading luminescence on an Envision (Perkin-Elmer). Data was analysed to calculate compound IC50and Ki as follows: • 1. […] Percent activity was calculated for each well using: (Test well reading−MEAN100%inhibition control wells)/(MEAN0% inhibition control wells−MEAN100%inhibition control wells). • 5. Morrison Ki was determined using Morrison Ki equation (XL-fit).
# T1 sequence (P49760 whole entry): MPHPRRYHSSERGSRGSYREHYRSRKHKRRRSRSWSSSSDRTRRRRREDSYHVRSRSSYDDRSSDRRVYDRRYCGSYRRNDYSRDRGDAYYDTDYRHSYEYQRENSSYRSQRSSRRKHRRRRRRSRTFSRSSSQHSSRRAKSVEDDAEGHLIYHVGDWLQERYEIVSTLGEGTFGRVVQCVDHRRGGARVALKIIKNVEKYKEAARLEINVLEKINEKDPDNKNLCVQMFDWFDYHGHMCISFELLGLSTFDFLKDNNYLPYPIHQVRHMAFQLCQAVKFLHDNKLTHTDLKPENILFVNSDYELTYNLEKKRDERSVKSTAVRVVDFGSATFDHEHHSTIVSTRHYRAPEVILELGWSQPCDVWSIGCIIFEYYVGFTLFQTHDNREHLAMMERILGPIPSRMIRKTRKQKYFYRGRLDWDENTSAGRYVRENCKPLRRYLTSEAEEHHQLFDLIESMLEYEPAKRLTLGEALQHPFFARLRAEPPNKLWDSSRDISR
SMILES,IC50 (CLK2),IC50 (intracellular CK2α),IC50 (CK2α)
"O=C(CCNCc1ccc(-c2ccccc2)c(Cl)c1)NCCCNc1cc(-n2cnnc2)cc2[nH]ncc12 [Example 11, N-(3-((6-(4H-1,2,4-triazol-4-yl)-1H-indazol-4-yl)amino)propyl)-3-(((2-chloro-[1,1′-biphenyl]-4-yl)methyl)amino)propanamide]",31.7 nM,249 nM,0.29 nM
"O=C(CCNCc1ccc(-c2ccccc2)c(Cl)c1)NCCC(=O)Nc1cc(-n2cnnc2)cc2[nH]ncc12 [Example 12, N-(6-(4H-1,2,4-triazol-4-yl)-1H-indazol-4-yl)-3-(3-(((2-chloro-[1,1′-biphenyl]-4-yl)methyl)amino)propanamido)propanamide]",612 nM,6830 nM,0.6 nM
"O=C(CCNCc1cccc(Cl)c1)NCCCNc1cc(-n2cnnc2)cc2[nH]ncc12 [Example 13, N-(3-((6-(4H-1,2,4-triazol-4-yl)-1H-indazol-4-yl)amino)propyl)-3-((3-chlorobenzyl)amino)propanamide]",51.7 nM,3890 nM,1.43 nM
"Clc1cc(CNCCc2cn(CCNc3cc(-n4cnnc4)cc4[nH]ncc34)nn2)ccc1-c1ccccc1 [Example 14, N-(2-(4-(2-(((2-chloro-[1,1′-biphenyl]-4-yl)methyl)amino)ethyl)-1H-1,2,3-triazol-1-yl)ethyl)-6-(4H-1,2,4-triazol-4-yl)-1H-indazol-4-amine]",322 nM,2120 nM,1.6 nM
"O=C(Cc1cnc(CCNCc2ccc(OC(F)(F)F)c(Cl)c2)o1)Nc1cc(-n2cnnc2)cc2[nH]ncc12 [Example 15, N-(6-(4H-1,2,4-triazol-4-yl)-1H-indazol-4-yl)-2-(2-(2-((3-chloro-4-(trifluoromethoxy)benzyl)amino)ethyl)oxazol-5-yl)acetamide]",1830 nM,> 50000 nM,27.1 nM
"FC(F)(F)Oc1ccc(CNCCc2nnc(CCNc3cc(-n4cnnc4)cc4[nH]ncc34)[nH]2)cc1Cl [Example 16, N-(2-(5-(2-((3-chloro-4-(trifluoromethoxy)benzyl)amino)ethyl)-4H-1,2,4-triazol-3-yl)ethyl)-6-(4H-1,2,4-triazol-4-yl)-1H-indazol-4-amine]",371 nM,3400 nM,14.1 nM
"O=C(CNCCCCNCc1ccc(OC(F)(F)F)c(Cl)c1)Nc1cc(-n2cnnc2)cc2[nH]ncc12 [Example 17, N-(6-(4H-1,2,4-triazol-4-yl)-1H-indazol-4-yl)-2-((4-((3-chloro-4-(trifluoromethoxy)benzyl)amino)butyl)amino)acetamide]",2780 nM,3840 nM,8.26 nM
"O=C(CCNCc1ccc(OC(F)(F)F)c(Cl)c1)NCCC(=O)Nc1cc(-n2cnnc2)cc2[nH]ncc12 [Example 18, N-(6-(4H-1,2,4-triazol-4-yl)-1H-indazol-4-yl)-3-(3-((3-chloro-4-(trifluoromethoxy)benzyl)amino)propanamido)propanamide]",1620 nM,4420 nM,2.81 nM
"O=C(CCNCc1ccc(OC(F)(F)F)c(Cl)c1)NCCCOc1cc(-n2cnnc2)cc2[nH]ncc12 [Example 19, N-(3-((6-(4H-1,2,4-triazol-4-yl)-1H-indazol-4-yl)oxy)propyl)-3-((3-chloro-4-(trifluoromethoxy)benzyl)amino)propanamide]",574 nM,5070 nM,3.13 nM
"CN(CCCNc1cc(-n2cnnc2)cc2[nH]ncc12)C(=O)CCNCc1ccc(OC(F)(F)F)c(Cl)c1 [Example 20, N-(3-((6-(4H-1,2,4-triazol-4-yl)-1H-indazol-4-yl)amino)propyl)-3-((3-chloro-4-(trifluoromethoxy)benzyl)amino)-N-methylpropanamide]",158 nM,3300 nM,23.5 nM
"Cc1cc(-c2cc(NCCCNC(=O)CCNCc3ccc(-c4ccccc4)c(Cl)c3)c3cn[nH]c3c2)ccn1 [Example 21, 3-(((2-Chloro-[1,1′-biphenyl]-4-yl)methyl)amino)-N-(3-((6-(2-methylpyridin-4-yl)-1H-indazol-4-yl)amino)propyl)propanamide]",446 nM,346 nM,2.93 nM
"COc1cc(-c2cc(NCCCNC(=O)CCNCc3ccc(-c4ccccc4)c(Cl)c3)c3cn[nH]c3c2)ccn1 [Example 22, 3-(((2-Chloro-[1,1′-biphenyl]-4-yl)methyl)amino)-N-(3-((6-(2-methoxypyridin-4-yl)-1H-indazol-4-yl)amino)propyl)propanamide]",1120 nM,363 nM,1.35 nM
"Clc1ccc2nc(CNCCCCOCCNc3cc(-n4cnnc4)cc4[nH]ncc34)[nH]c2c1 [Example 23, N-(2-(4-(((6-chloro-1H-benzo[d]imidazol-2-yl)methyl)amino)butoxy)ethyl)-6-(4H-1,2,4-triazol-4-yl)-1H-indazol-4-amine]",86.1 nM,17500 nM,19.9 nM
"FC(F)(F)Oc1ccc(CNCCCCNCCNc2cc(-n3cnnc3)cc3[nH]ncc23)cc1Cl [Example 24, N^1-(2-((6-(4H-1,2,4-triazol-4-yl)-1H-indazol-4-yl)amino)ethyl)-N^4-(3-chloro-4-(trifluoromethoxy)benzyl)butane-1,4-diamine]",344 nM,591 nM,0.78 nM
"O=C(CCNCc1ccc(-c2ccccc2)c(Cl)c1)NCCCNc1cc(-c2cn[nH]n2)cc2[nH]ncc12 [Example 25, N-(3-((6-(2H-1,2,3-triazol-4-yl)-1H-indazol-4-yl)amino)propyl)-3-(((2-chloro-[1,1′-biphenyl]-4-yl)methyl)amino)propanamid]",18.2 nM,93.6 nM,0.44 nM
"O=C(CCNCc1ccc(-c2ccccc2)c(Cl)c1)NCCCNc1cc(-c2cccnc2)cc2[nH]ncc12 [Example 26, 3-(((2-chloro-[1,1'-biphenyl]-4-yl)methyl)amino)-N-(3-((6-(pyridin-3-yl)-1H-indazol-4-yl)amino)propyl)propanamide]",4460 nM,875 nM,20.4 nM
"Cc1n[nH]cc1-c1cc(NCCCNC(=O)CCNCc2ccc(-c3ccccc3)c(Cl)c2)c2cn[nH]c2c1 [Example 27, 3-(((2-chloro-[1,1′-biphenyl]-4-yl)methyl)amino)-N-(3-((6-(3-methyl-1H-pyrazol-4-yl)-1H-indazol-4-yl)amino)propyl)propanamide]",56.4 nM,322 nM,0.95 nM
